Results reported in US20250161476A1 (REGENERON PHARMACEUTICALS, INC., priority 2020, published 2025).
Where a SMILES comes first, the peptide text is derived from it. [ ]: non-standard residue; d: D form. The star is where a group is joined. Bip(2'-Et,4'-O(CH2)4NH2) = CCc1cc(OCCCCN)ccc1-c1ccc(C[C@H](N)C(=O)O)cc1; Malonyl(2,2-Me2,histaminyl) = CC(C)(C(=O)NCCc1cnc[nH]1)C(=O)*; Nva(5-(3,5-Me2Ph)) = Cc1cc(C)cc(CCC[C@H](N)C(=O)O)c1; Ala(1H-tetrazol-5-yl) = N[C@@H](Cc1nnn[nH]1)C(=O)O; αMePhe(2-F) = C[C@](N)(Cc1ccccc1F)C(=O)O; NHPh = c1ccc(N*)cc1

Tests used:
human GLP1R [1] = molecular target: T1, human GLP1R (Homo sapiens (Human), UniProt P43220); experiment: Human GLP1R cAMP accumulation assay (HEK293 cells over-expressing human GLP-1R); assay type: cell-based; details: HEK293/hGLP1R cells, 30 min
T1 sequence (P43220 24-463): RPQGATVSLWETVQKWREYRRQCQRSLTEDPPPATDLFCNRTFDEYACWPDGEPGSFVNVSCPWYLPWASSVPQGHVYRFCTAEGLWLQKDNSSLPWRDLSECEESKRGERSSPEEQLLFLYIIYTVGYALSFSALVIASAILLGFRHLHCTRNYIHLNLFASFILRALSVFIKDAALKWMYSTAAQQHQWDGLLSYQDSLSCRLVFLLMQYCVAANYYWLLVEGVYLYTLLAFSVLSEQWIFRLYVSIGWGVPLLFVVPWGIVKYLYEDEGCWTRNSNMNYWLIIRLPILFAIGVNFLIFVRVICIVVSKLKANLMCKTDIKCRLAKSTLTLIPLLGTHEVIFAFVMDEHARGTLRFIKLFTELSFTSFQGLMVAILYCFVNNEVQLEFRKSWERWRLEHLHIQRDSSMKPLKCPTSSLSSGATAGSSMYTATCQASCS
Procedure: The functional activity of the test compounds for agonizing GLP1R were evaluated using a cell-based assay. For the assay, HEK293 cells over-expressing full length human GLP-1R were utilized and the downstream cAMP accumulation was assessed as a measure of human GLP-1R stimulation. […] Diluted compounds were transferred to OptiPlates (100 nL/well) using an Echo liquid handler. HEK293/hGLP1R cells were thawed in 37° C. water-bath, washed 2 times with HBSS and re-suspended in assay buffer (HBSS+5 mM HEPES+500 μM IBMX+0.1% BSA). […] After centrifugation, the assay plate was incubated at 23° C. for 30 min. The reaction was terminated by adding 10 μL of lysis buffer containing D2-cAMP and a cAMP-antibody from the cyclic AMP immunoassay kit (Cisbio, Cat #62AM4PEJ). […] The levels of cAMP per well were calculated using a standard curve generated by GraphPad Prism. […] EC50 values were fitted from a four-parameter logistic equation over a 10-point response curve (GraphPad Prism).

human GLP1R [2] = molecular target: T1, human GLP1R; experiment: cAMP responsive luciferase reporter assay, HEK293/CRE-Luc/hGLP1R cells; assay type: cell-based; details: for HEK293/CRE-LUC/hGLP1R S/N: highest RLU / RLU of untreated wells; for HEK293/CRE-LUC/hGLP1R Relative Potency (% P8 EC50) / HEK293/CRE-LUC/hGLP1R Relative Signal:Noise (% P8): relative to P8 of the same experiment
Text: (§1) To test the activity of GLP1R agonist payloads, GLP1R agonist linker-payloads (LPs), and anti-GLP1R antibody tethered drug conjugates (ATDCs) of the disclosure, a cell-based cAMP responsive luciferase reporter assay was developed. To generate the assay cell line, the firefly luciferase gene was placed under the control of a cAMP response element (CRE) located upstream of a minimal promoter and transfected into HEK293 cells and referred to herein as HEK293/CRE-Luc cells.
(§2) Three-fold serial dilutions of free payloads or LPs were prepared in 100% DMSO, transferred to fresh assay media, and added to the cells at a final constant DMSO concentration of 0.2%. The last well in the plate served as a blank control containing only the assay media and 0.2% DMSO (untreated well) and was plotted as a continuation of the 3-fold serial dilution. Four to six hours later, luciferase activity was determined after the addition of One-Glo™ reagent (Promega, Cat #E6130) to each well. Relative light units (RLUs) were measured on an Envision luminometer (PerkinElmer) and EC50 values were determined using a four-parameter logistic equation over a 12-point dose response curve (GraphPad Prism). The signal to noise (S/N) was determined by taking the ratio of the highest RLU on the dose response curve to the RLU in the untreated wells.
GLP1R agonist linker payloads were conjugated to anti-hGLP1R antibodies via N-terminal heavy or light chain Q tags. Several resulting anti-GLP1R antibody tethered drug conjugates (ATDCs) were tested for activity in the HEK293/CRE-Luc/hGLP1R reporter assay as described above for the free GLP1R payload and linker-payload agonists.

[3] = Plasma stability of payloads and linker-payloads, human plasma; assay type: in vitro ADME
Procedure: The plasma stability of payloads and linker payloads of the disclosure were measured. For the assay, pooled frozen plasma (human, mouse or monkey) was thawed in cold water or a 37° C. water bath prior to experiment. Plasma was centrifuged at 4000 rpm for 5 min if any clots were observed, they were subsequently removed. If required, the pH was adjusted to 7.4±0.1. For the preparation of compounds and positive controls, a 1 mM intermediate solution was prepared by diluting 10 μL of their stock solution with 90 μL DMSO; a 1 mM intermediate solution of the positive control (Propantheline) was prepared by diluting 10 μL of its stock solution with 90 μL ultrapure water. […] 98 μL of plasma was spiked with 2 μL of dosing solution (100 μM) to achieve the final concentration of 2 μM in duplicate. Samples were then incubated at 37° C. in a water bath. […] At each time point, 400 μL of stop solution (200 ng/mL tolbutamide plus 200 ng/mL labetalol in 50% ACN/MeOH) was added to precipitate protein and mixed thoroughly. Sample plates were then centrifuged at 4,000 rpm for 10 min. An aliquot of supernatant (50 μL) was transferred from each well and mixed with 100 μL ultra-pure water. The samples were then shaken at 800 rpm for approximately 10 min before submitting for LC-MS/MS analysis.

HEK293/CRE-Luc cells = experiment: cAMP responsive luciferase reporter assay, HEK293/CRE-Luc cells (no hGLP1R expression); assay type: cell-based, human
Text: as §1, §2

EC50 (human GLP1R [1]) [nM] | Compound | HEK293/CRE-LUC/hGLP1R S/N (human GLP1R [2]) | HEK293/CRE-LUC/hGLP1R Relative Potency (% P8 EC50) (human GLP1R [2]) [%] | HEK293/CRE-LUC/hGLP1R Relative Signal:Noise (% P8) (human GLP1R [2]) [%] | Human plasma stability assay T½ ([3]; tested for 3 days (C)) [h] | half-life at 2 µM ([3]; human, pooled plasma, pH 7.4, payload properties table, species not given, read-out: Plasma stability t½ (converted)) [h] | EC50 (HEK293/CRE-Luc cells) [nM] | HEK293/CRE-LUC S/N (HEK293/CRE-Luc cells) | Human plasma stability assay T½ ([3]; tested for 2 hrs (B)) [h]
0.458 | CCc1cc(OCCCCNC(=O)CNC(=O)CNC(=O)CNC(=O)CNC(=O)[C@H](CO[C@@H]2OC(CO)[C@@H](O)[C@H](O)C2O)NC(=O)CCNC(=O)OC[C@@H]2[C@@H]3CCC#CCC[C@@H]32)ccc1-c1ccc(C[C@H](NC(=O)[C@H](CC(=O)O)NC(=O)[C@H](CO)NC(=O)[C@@H](NC(=O)[C@](C)(Cc2ccccc2F)NC(=O)[C@@H](NC(=O)CNC(=O)[C@H](Cc2nn[nH]n2)NC(=O)C(C)(C)C(=O)NCCc2cnc[nH]2)[C@@H](C)O)[C@@H](C)O)C(=O)N[C@@H](CCCc2cc(C)cc(C)c2)C(N)=O)cc1 (some centres unmarked) [LP18, BCN-NHC2H4CO-(glucose) SG4-P9] |  |  |  |  |  |  |  | 
 | CCc1cc(OCCCCN)ccc1-c1ccc(C[C@H](NC(=O)[C@H](CC(=O)O)NC(=O)[C@H](CO)NC(=O)[C@@H](NC(=O)[C@](C)(Cc2ccccc2F)NC(=O)[C@@H](NC(=O)CNC(=O)[C@H](CCC(N)=O)NC(=O)C(C)(C)C(=O)NCCc2cnc[nH]2)[C@@H](C)O)[C@@H](C)O)C(=O)N[C@@H](CCCc2cc(C)cc(C)c2)C(N)=O)cc1 [P21] | 58.8 | 0.7 | 89.5 | >173.4 | > 57.8 | > 200 | 1.3 | 
 | CCc1cc(OCCCCN)ccc1-c1ccc(C[C@H](NC(=O)[C@H](CC(=O)O)NC(=O)[C@H](CO)NC(=O)[C@@H](NC(=O)[C@](C)(Cc2ccccc2F)NC(=O)[C@@H](NC(=O)CNC(=O)[C@H](Cc2nn[nH]n2)NC(=O)C(C)(C)C(=O)NCCc2cnc[nH]2)[C@@H](C)O)[C@@H](C)O)C(=O)N[C@@H](CCCc2cc(C)cc(C)c2)C(=O)Nc2ccccc2)cc1 [P23] ({Malonyl(2,2-Me2,histaminyl)}-[Ala(1H-tetrazol-5-yl)]GT[αMePhe(2-F)]TSD[Bip(2'-Et,4'-O(CH2)4NH2)][Nva(5-(3,5-Me2Ph))]-NHPh) | 57.1 | 103.0 | 86.9 |  |  | > 200 | 1.6 | 10.74
